Values joined by “and” are separate entries in the source; they are usually repeats but may differ in a detail not shown here. Equal entries are not always repeated. “Also recorded” adds a separate entry of the source. Structures can show the parent of a compound that is named as a salt.
Columns and labels:
[1] = tested on: tumor-infiltrating T cells from lung cancer biopsies; test: Activation of MR1-M3ADE tetramer-sorted TIL lines; format: cell-based, human; details: A375-MR1 cells with or without M3ADE; TCR downregulation, IFN-γ
Procedure: Tissue biopsy samples derived from small cell lung tumors that were digested with media containing Accutase (Innovative Cell; Cat #AT-104), Collagenase IV 200 U/mL (Worthington; Cat #LS004189), DNAse I 0.5 mg/mL (Sigma-Aldrich Cat #D5025) and Hyaluronidase 50 mg/mL (Sigma; Cat #H6254) for 1 hour at 37° C. Digested material was passed through a […] cell strainer and erythrocytes were lysed before being frozen and stored in liquid nitrogen. After thawing, TILs were rested for 2 days prior to co-culture with A375-p2mKO-MR1 cells in a ratio of 1:1 and in the presence of 50 μM M3ADE. On day 5, human rIL-2 (5 U/mL) was added to the cultures for a further 5 days, and expansion in this manner was repeated 3 times. Cells were then stained with MR1-M3ADE tetramer, anti-CD3, anti-CD4 and anti-CD8 mAbs, and tetramer positive cells were sorted into a bulk line before functional experiments.
The inventors isolated TILs from non-small cell-lung-cancer biopsies from two patients and co-cultured them with A375-MR1 cells loaded with M3ADE, in order to expand MR1T cells. […] The inventors measured the extent of MR1T-cell activation via TCR downregulation, which occurred only in the presence of […] M3ADE-loaded A375-MR1 cells, and was prevented by anti-MR1 blocking mAbs (FIG. 14C, donor 840, and FIG. 14D, donor 895). […]

[2] = target: T1, MR1 surface expression on THP-1 MR1 cells (Homo sapiens, UniProt Q95460); test: Cell surface MR1 modulation on APCs (flow cytometry, anti-MR1 mAb 26.5); format: cell-based
T1 construct: expressed in transfected cells; host or cells: THP-1 (ATCC TIB-202) stably expressing MR1 (THP1-MR1)
Procedure: […] […] For each condition, net MFI was calculated subtracting isotype MFI from anti-MR1 MFI and fold change of cells treated with synthetic molecules over cells treated with vehicle was calculated.

MR1T cell clones [3] = test: MR1T cell activation assay with THP-1 cells incubated with compounds (cytokine ELISA); format: cell-based, human
Procedure: MR1T cells (5×10^4/well unless otherwise indicated) were co-cultured with the indicated APCs (10^5 cells per well unless otherwise indicated) for 18 h in 120 μL volume in triplicate.
When nucleobases, nucleosides or nucleotides (all 250 μM) and synthetic compounds M3ADE, OPdA, M1G or OPdC were used to stimulate T cells, the THP-1 cells (10^5/well) were cultured 2 h with the indicated molecules or medium only, prior to T-cell addition. When a single concentration of synthetic antigens was used, 100 μM OPdA, 100 μM OPdC and 13 μM M1G were used for all clones, while 100 μM M3ADE was used for all clones except DGB129, AC1A4, AC1B76 and AVA46 for which 1 μM was used.

MR1T cell clones [4] = test: MR1T cell activation assay with treated and fixed A375-MR1 cells; format: cell-based, human; details: 18 h treatment before fixation; concentrations (FIG. 10D-L)
Procedure: (§1) MR1T cells (5×10^4/well unless otherwise indicated) were co-cultured with the indicated APCs (10^5 cells per well unless otherwise indicated) for 18 h in 120 μL volume in triplicate. In some experiments, anti-MR1 mAbs (clone 26.5, purified and endotoxin-free mouse IgG2a, (Lepore et al., 2014)) or mouse IgG2a isotype control mAbs (LEAF, Biolegend, Cat #401504) (both at 30 μg/mL) were added and incubated for 30 min at 37° C. prior to the addition of T cells.
(§2) In experiments with mycophenolic acid (10 μM), EHNA (25 μM), S-p-bromobenzylglutathione cyclopentyl diester (BBG, 20 μM) (all from Sigma-Aldrich), THP-1 cells (1×10^6/mL) were treated with the indicated concentrations of drugs in complete medium at 37° C. for 18 h before being washed twice with PBS, counted and used for T-cell activation. In experiments where THP-1 cells (1×10^6/mL) were treated with doxorubicin (75 nM) and paclitaxel (5 μM) (both from Sigma-Aldrich), the cells were incubated at 37° C. for 18 h before being washed twice with PBS, counted, and incubated for 2 h with vehicle or 150 μM dAdo and 150 μM guanosine (Sigma-Aldrich) prior to T-cell addition. In experiments where fixed A375-MR1 cells were used to activate MR1T cells, APCs (4×10^5/mL) were treated with apocynin (APO, 100 μM), L-glutathione reduced (GSH, 4 mM), N-acetyl cysteine (NAC, 4 mM), L-buthionine-sulfoximine (BSO, 400 μM) mercaptosuccinic acid (MSA, 3.3 μM), ML-210 (6 μM) or 1S,3R-RSL3 (RSL3, 1 μM), hydralazine hydrochloride (100 μM) or aminoguanidine hemisulfate salt (5 mM) for 18 h at 37° C. before being washed twice with PBS, fixed with glutaraldehyde, counted and used for MR1T cell stimulation.
(§3) The following human cytokines were assessed by ELISA using specific mAbs: GM-CSF (purified clone BVD2-23B6 and biotinylated clone BVD2-21C11, Biolegend Cat #502202 and 502304, respectively), IFN-γ (purified clone MD-1 and biotinylated clone 4S.B3, Biolegend Cat #507502 and 502504, respectively), IL-13 (purified clone JES10-5A2 and biotinylated clone SB126d, SouthernBiotech Cat #10125-01 and 15930-08, respectively).

MAIT clone MRC25 = test: Control stimulation of MAIT clone MRC25; format: cell-based, human; details: for MAIT cell activation: A375-MR1 cells treated with carbonyl scavengers (FIG. 16E)
Procedure: In some experiments, MAIT cells were stimulated by APCs pulsed 3 h with 5-OP-RU as previously described or with 30 μM 6,7-dimethyl-8-ribityllumazine (Cayman Chemical Cat #23370).

MR1T cell clones [5] = test: MR1T cell activation assay with treated and fixed A375-MR1 cells; format: cell-based, human; details: 6 h incubation before fixation; clones TC5A87 and DGB129 (FIG. 9C, D)
MR1T cell clones [6] = test: MR1T cell activation assay with drug-treated THP-1 cells; format: cell-based, human; details: THP-1 cells with Doxorubicin 75 nM or Paclitaxel 5 μM and nucleosides (dAdenosine and Guanosine, both 150 μM)
Procedure: as §1, §2, §3

THP-1 cells = test: ROS production measurement (CM-H2DCFDA); format: cell-based, human; details: 75 nM Doxorubicin or 5 μM Paclitaxel, 18 h (FIG. 17A)
Procedure: CM-H2DCFDA (Thermo Fisher Scientific) was used to assess ROS production in cell upon cell treatment with Doxorubicin and Paclitaxel. THP-1 cells ([…]) were labelled with 10 μM CM-H2DCFDA for 30 min at 37° C. in the dark, then washed with PBS and resuspended in complete medium. 10^5 cells were seeded per well and treated with 75 nM Doxorubicin, 5 μM Paclitaxel or vehicle for 18 h at 37° C. Phorbol 12-myristate 13-acetate (PMA, 50 ng/mL) was used as positive control.

MR1T cell clones [7] = test: Activation assay with plate-bound soluble MR1; format: cell-based, human; details: IL-13 (FIG. 4)
Procedure: Recombinant human P2m-MR1-Fc was produced in CHO-K1 cells as previously described (Lepore et al., 2017) and 4 μg/mL were coated onto 96 wells plates (Nunc, Cat #439454) for 18 h at 4° C. Plate-bound MR1 was then washed twice with wash buffer (150 mM NaCl, 20 mM Tris and 2% Glycerol, pH 5.6) to remove bound antigens. Then, the synthetic antigens (M3ADE, OPdA, M1G and OPdC) were added at the indicated concentrations and incubated for 6 h at room temperature (RT). Unbound antigens were washed twice with PBS before the addition of excess PBS. In some experiments, bacteria-produced and refolded MR1-M3ADE protein was serially diluted in PBS and added to a high protein binding plate (Nunc, Cat #439454) for 2 h at 37° C. then washed twice and used in the stimulation assay. Indicated MR1T cell clones ([…]) were added and supernatants were collected after 18 h. Released cytokines were detected by ELISA. Recombinant human P2m-MR1-Fc was produced in CHO-K1 cells as previously described and 4 μg/mL were coated onto 96 wells plates. Antigens produced by CHO-K1 cells were removed by washing twice with wash buffer (150 mM NaCl, 20 mM Tris and 2% Glycerol, pH 5.6). […]
Correct protein conformation was confirmed by performing a plate-bound activation of the MR1T cell clone DGB129. […] IL-13 ELISA was then used as an activation readout. […]

T1 sequence (Q95460 23-341): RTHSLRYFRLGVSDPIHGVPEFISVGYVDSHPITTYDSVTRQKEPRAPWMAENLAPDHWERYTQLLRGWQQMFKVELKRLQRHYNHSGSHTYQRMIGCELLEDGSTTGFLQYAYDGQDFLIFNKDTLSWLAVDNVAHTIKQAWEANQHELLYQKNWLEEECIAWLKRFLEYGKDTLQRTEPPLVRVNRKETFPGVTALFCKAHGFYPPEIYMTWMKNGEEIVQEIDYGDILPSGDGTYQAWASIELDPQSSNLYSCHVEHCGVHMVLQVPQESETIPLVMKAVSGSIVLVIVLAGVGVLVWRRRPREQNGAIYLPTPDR
T1 sequence (P61769 21-119 partner): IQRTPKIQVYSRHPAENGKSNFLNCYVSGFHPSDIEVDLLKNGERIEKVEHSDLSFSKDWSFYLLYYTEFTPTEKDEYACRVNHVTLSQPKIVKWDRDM

Compound: O=CC1=COC2CC1C(C=O)=CN2c1ncnc2[nH]cnc12 (stereo not shown) [Cmpd 13, 8-(9H-purin-6-yl)-2-oxa-8-azabicyclo[3.3.1]nona-3,6-diene-4,6-dicarbaldehyde]
- reactivity of tetramer-positive TIL cells, donor 895 [1]: reacted only to M3ADE-loaded A375-MR1 cells
- reactivity of tetramer-positive TIL cells, donor #840 [1]: irrespective of the presence of M3ADE
- MRI upregulation ([2]; THP-1 MR1 cells, 3 h at 37° C., 3 doses each): YES
- cell surface MR1 upregulation on APCs (in words) ([2]; pulsed APC / THP1-MR1 cells): most efficient in increasing MR1 surface expression
- Reactive T cells isolated (MR1T cell clones [3]): YES
- activation of MR1T clone AC1A4 by adduct (MR1T cell clones [3]): activated
- potency among the synthesized adducts (MR1T cell clones [3]): highest potency
- response to THP-1 cells when adduct added (MR1T cell clones [3]; M1G or M3ADE added to clones QY1A16 and QY1C3, respectively): significant decreased response
- activation of MR1T clone AVA34 by compound (MR1T cell clones [3]; THP-1 / MR1+ APCs loaded with compound, listed as M3ADE): specifically activated; also recorded: reacted
- number of MR1T clones significantly stimulated (MR1T cell clones [3]; fourteen randomly selected MR1T clones, THP-1 cells, IFN-γ (FIG. 12B), listed as M3ADE): six and 6/14
- IL-13 release by AVA34 cells (MR1T cell clones [3]; toward THP-1 cells in the presence of compound (FIG. 5b)): IL-13 release

Compound: N=C(N)NN [aminoguanidine, aminoguanidine hemisulfate salt]
- MR1T-cell stimulation (IFN-γ) by treated, fixed A375-MR1 cells (MR1T cell clones [4]): significant inhibition of IFN-γ production
- MAIT cell activation (MAIT clone MRC25): no effect on MAIT cell activation

Compound: COc1cc(C(C)=O)ccc1O [apocynin]
- MR1T-cell stimulation (IFN-γ) by treated, fixed A375-MR1 cells (MR1T cell clones [4]): effective with one T-cell clone

Compound: CCCCS(=N)(=O)CCC(N)C(=O)O (stereo not shown) [buthionine sulfoximine]
- MR1T-cell stimulation (IFN-γ) by treated, fixed A375-MR1 cells (MR1T cell clones [4]): significant increase

Compound: O=CC[C@@H](O)[C@H](O)[C@H](O)CO [deoxyglucose, 2-deoxy-D-Glucose]
- MR1T-cell stimulatory capacity of pulsed and fixed A375-MR1 cells (MR1T cell clones [5]): abolished

Compound: COc1cccc2c1C(=O)c1c(O)c3c(c(O)c1C2=O)C[C@@](O)(C(=O)CO)C[C@@H]3O[C@H]1C[C@H](N)[C@H](O)[C@H](C)O1 [doxorubicin, Doxorubicin]
- activation of MR1T-cell clones TC5A87, DGB129, MCA3C3 (MR1T cell clones [6]): promoted activation of all three MR1T-cell clones
- ROS accumulation (THP-1 cells): significantly increased ROS accumulation

Compound: NNc1nncc2ccccc12 [hydralazine, hydralazine hydrochloride]
- MR1T-cell stimulation (IFN-γ) by treated, fixed A375-MR1 cells (MR1T cell clones [4]): significant inhibition of IFN-γ production
- MAIT cell activation (MAIT clone MRC25): no effect on MAIT cell activation

Compound: O=C(O)CC(S)C(=O)O (stereo not shown) [mercaptosuccinic acid]
- MR1T-cell stimulation (IFN-γ) by treated, fixed A375-MR1 cells (MR1T cell clones [4]): significantly increased MR1T-cell stimulatory activity

Compound: CC(=O)O[C@H]1C(=O)[C@@]2(C)[C@H]([C@H](OC(=O)c3ccccc3)[C@]3(O)C[C@H](OC(=O)[C@H](O)[C@@H](NC(=O)c4ccccc4)c4ccccc4)C(C)=C1C3(C)C)[C@]1(OC(C)=O)CO[C@@H]1C[C@@H]2O [paclitaxel, Paclitaxel]
- activation of MR1T-cell clones TC5A87, DGB129, MCA3C3 (MR1T cell clones [6]): promoted activation of all three MR1T-cell clones
- ROS accumulation (THP-1 cells): significantly increased ROS accumulation
- MAIT-cell response (MAIT clone MRC25; drug-treated APCs, paclitaxel in presence of nucleosides (FIG. 16C-D)): little but significant stimulation

Compound: MR1-M3ADE monomers: human recombinant soluble MR1 refolded in vitro in the presence of M3ADE
- stimulation of clone DGB129 by refolded MR1-M3ADE monomers (MR1T cell clones [7]): stimulated
